Laboratory results reported in patent US8962648B2, “Tricyclic compounds and PBK inhibitors containing the same” (OncoTherapy Science, Inc., priority 2010, dated 2015).
Structures can show the parent of a compound that is named as a salt. Where two headings read alike, the source gives them in different places.

Tests used:
PBK = PBK (Homo sapiens (Human), UniProt Q96KB5); assay: Kinase assay (IMAP fluorescence polarization, FITC-labeled histone H3 peptide); format: biochemical
Experimental: PBK activity was determined in the presence or absence of compounds using fluorescein isothiocyanate-labeled (FITC-labeled) histone H3 peptide as a substrate. […] The serially diluted compounds, 0.8 ng/micro-L PBK (Carna Biosciences) and 100 nM FITC-labeled histone H3 peptide were reacted in a reaction buffer (20 mM HEPES, 0.01% Tween-20, 0.3 mM MgCl2, 2 mM dithiothreitol, 50 micro-M ATP, pH 7.4) at room temperature for 1 hour. The reaction was stopped by the addition of three fold assay volume of progressive binding solution. […] IC50 values were calculated by nonlinear four parameter fit using SigmaPlot, version 10.0 (Systat Software, Inc.).

A549 cells = assay: Cell-based assay, cellular growth (Cell Counting Kit-8, 72 hours)
Experimental: (§1) 100 micro-L of cell suspension was seeded onto 96-well microtiter plate (ViewPlate-96FTC, PerkinElmer). […] Cellular growth was determined using Cell Counting Kit-8 (DOJINDO) at 72 hours after the exposure of the candidate inhibitors. […] Accurate IC50 values were calculated as described previously.

BT-549 cells = assay: as above; details: Homo sapiens, BT549 cells
Experimental: as §1

T47D cells = assay: as above
Experimental: as §1

HT-1197 cells = assay: Cell-based assay, cellular growth (Cell Counting Kit-8, 72 hours), PBK-negative control cells
Experimental: as §1

[1] = PBK 0.8 ng/micro-L, 50 micro-M ATP, 100 nM FITC-labeled histone H3 peptide, room temperature 1 hour
[2] = Homo sapiens, HT1197 cells (PBK-negative control)
[3] = PBK 0.8 ng/micro-L, 50 micro-M ATP, 100 nM FITC-labeled histone H3 peptide, room temperature 1 hour, hydrobromide
[4] = HT1197 cells (PBK-negative control), hydrobromide

PBK, sequence (Q96KB5 whole entry): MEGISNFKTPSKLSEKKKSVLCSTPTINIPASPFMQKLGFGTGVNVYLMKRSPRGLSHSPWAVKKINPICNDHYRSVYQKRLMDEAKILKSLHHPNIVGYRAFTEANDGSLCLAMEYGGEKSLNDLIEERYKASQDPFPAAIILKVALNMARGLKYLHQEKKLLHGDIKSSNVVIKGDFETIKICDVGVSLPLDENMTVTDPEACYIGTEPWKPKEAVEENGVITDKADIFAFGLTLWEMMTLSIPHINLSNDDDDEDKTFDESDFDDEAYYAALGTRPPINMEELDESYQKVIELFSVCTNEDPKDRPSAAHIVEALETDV

| Structure (SMILES) | IC50 (PBK) | IC50 (A549 cells; Homo sapiens, A549, 72 h) | IC50 (BT-549 cells) | IC50 (T47D cells; Homo sapiens, T47D, 72 h) | IC50 (HT-1197 cells; Homo sapiens, HT1197, 72 h) | IC50 (PBK; [1]) | further results |
| --- | --- | --- | --- | --- | --- | --- | --- |
| CC(N)c1ccc(-c2c(O)cc(Cl)c3[nH]c(=O)c4sccc4c23)cc1 (stereo not drawn) [Compound 1041, 9-(4-(1-aminoethyl)phenyl)-6-chloro-8-hydroxythieno[2,3-c]quinolin-4(5H)-one hydrochloride] | 12 nM | 160 nM | 190 nM | 340 nM | 650 nM |  |  |
| CN[C@H](C)c1ccc(-c2c(O)ccc3[nH]c(=O)c4sccc4c23)cc1 [Compound 1052, (R)-8-hydroxy-9-(4-(1-(methylamino)ethyl)phenyl)thieno[2,3-c]quinolin-4(5H)-one hydrochloride] |  | 170 nM | 170 nM | 320 nM | 450 nM | 1.3 nM |  |
| C[C@@H](N)c1ccc(-c2c(O)cc(Cl)c3[nH]c(=O)c4sccc4c23)cc1 [Compound 1081, (R)-9-(4-(1-aminoethyl)phenyl)-6-chloro-8-hydroxythieno[2,3-c]quinolin-4(5H)-one hydrochloride] | 8.6 nM | 100 nM | 86 nM | 170 nM | 390 nM |  |  |
| CC(CN(C)C)c1ccc(-c2c(O)ccc3[nH]c(=O)c4sccc4c23)cc1 (stereo not drawn) [Compound 1112, 9-(4-(1-(dimethylamino)propan-2-yl)phenyl)-8-hydroxythieno[2,3-c]quinolin-4(5H)-one hydrochloride] | 3.3 nM |  | 210 nM |  |  |  | IC50 (A549 cells; Homo sapiens): 250 nM; IC50 (T47D cells; Homo sapiens): 470 nM; IC50 (HT-1197 cells; [2]): 640 nM |
| C[C@H](c1ccc(-c2c(O)cc(Cl)c3[nH]c(=O)c4sccc4c23)cc1)N(C)C [Compound 1126, (R)-6-chloro-9-(4-(1-(dimethylamino)ethyl)phenyl)-8-hydroxythieno [2,3-c]quinolin-4(5H)-one hydrochloride] |  | 110 nM | 140 nM | 290 nM | 320 nM | 42 nM |  |
| CN[C@H](C)c1ccc(-c2c(O)cc(Cl)c3[nH]c(=O)c4sccc4c23)cc1 [Compound 1132, (R)-6-chloro-8-hydroxy-9-(4-(1-(methylamino)ethyl)phenyl)thieno[2,3-c]quinolin-4(5H)-one hydrochloride] |  | 90 nM | 97 nM | 190 nM | 320 nM | 14 nM |  |
| NCCc1ccc(-c2c(O)cc(Cl)c3[nH]c(=O)c4sccc4c23)cc1 [Compound 1133, 9-(4-(2-aminoethyl)phenyl)-6-chloro-8-hydroxythieno[2,3-c]quinolin-4(5H)-one hydrochloride] | 20 nM | 180 nM | 150 nM | 230 nM | 870 nM |  |  |
| CC(CN)c1ccc(-c2c(O)cc(Cl)c3[nH]c(=O)c4sccc4c23)cc1 (stereo not drawn) [Compound 1136, 9-(4-(1-aminopropan-2-yl)phenyl)-6-chloro-8-hydroxythieno[2,3-c]quinolin-4(5H)-one hydrochloride] |  | 35 nM | 32 nM | 57 nM | 180 nM | 8.6 nM |  |
| COc1ccc2[nH]c(=O)c3sccc3c2c1-c1ccc(S(=O)(=O)NCCCl)cc1 [Compound 1139, N-(2-chloroethyl)-4-(8-methoxy-4-oxo-4,5-dihydrothieno[2,3-c]quinolin-9-yl)benzenesulfonamide] |  |  | 17 nM |  |  | 70 nM | IC50 (A549 cells; Homo sapiens): 23 nM; IC50 (T47D cells; Homo sapiens): 200 nM; IC50 (HT-1197 cells; [2]): 14000 nM |
| NCCc1ccc(-c2c(O)cc(Br)c3[nH]c(=O)c4sccc4c23)cc1 [Compound 1142, 9-(4-(2-aminoethyl)phenyl)-6-bromo-8-hydroxythieno[2,3-c]quinolin-4(5H)-one hydrochloride] |  | 210 nM | 170 nM | 250 nM | 1000 nM | 45 nM |  |
| COc1ccc2[nH]c(=O)c3sccc3c2c1-c1ccc([C@@H](C)CN)cc1 [Compound 1161, (R)-9-(4-(1-aminopropan-2-yl)phenyl)-8-methoxythieno[2,3-c]quinolin-4(5H)-one hydrochloride] |  | 270 nM | 220 nM | 450 nM | 820 nM | 2 nM |  |
| C[C@@H](CN)c1ccc(-c2c(O)cc(Cl)c3[nH]c(=O)c4sccc4c23)cc1 [Compound 1166, (R)-9-(4-(1-aminopropan-2-yl)phenyl)-6-chloro-8-hydroxythieno[2,3-c]quinolin-4(5H)-one hydrochloride] |  | 17 nM | 13 nM | 26 nM | 120 nM | 4.4 nM |  |
| C[C@@H](CN)c1ccc(-c2c(O)cc(Br)c3[nH]c(=O)c4sccc4c23)cc1 [Compound 1176, (R)-9-(4-(1-aminopropan-2-yl)phenyl)-6-bromo-8-hydroxythieno[2,3-c]quinolin-4(5H)-one hydrochloride] |  | 27 nM | 24 nM | 38 nM | 100 nM | 17 nM |  |
| COc1ccc2[nH]c(=O)c3sccc3c2c1-c1ccc(C(C)CN)c(F)c1 (stereo not drawn) [Compound 1179, 9-(4-(1-aminopropan-2-yl)-3-fluorophenyl)-8-methoxythieno[2,3-c]quinolin-4(5H)-one hydrochloride] |  | 630 nM | 450 nM | 860 nM | 1900 nM | 3 nM |  |
| CNC[C@H](C)c1ccc(-c2c(O)ccc3[nH]c(=O)c4sccc4c23)cc1 [Compound 1187, (R)-8-hydroxy-9-(4-(1-(methylamino)propan-2-yl)phenyl)thieno[2,3-c]quinolin-4(5H)-one hydrochloride] |  | 200 nM | 190 nM | 190 nM | 320 nM | 1.3 nM |  |
| C[C@@H](CN(C)C)c1ccc(-c2c(O)ccc3[nH]c(=O)c4sccc4c23)cc1 [Compound 1188, (R)-9-(4-(1-(dimethylamino)propan-2-yl)phenyl)-8-hydroxythieno[2,3-c]quinolin-4(5H)-one hydrochloride] | 2.5 nM |  | 160 nM |  |  |  | IC50 (A549 cells; Homo sapiens): 160 nM; IC50 (T47D cells; Homo sapiens): 290 nM; IC50 (HT-1197 cells; [2]): 430 nM |
| Cc1cc(O)c(-c2ccc([C@H](C)CN)c(F)c2)c2c1[nH]c(=O)c1sccc12 [Compound 1304, (S)-9-(4-(1-aminopropan-2-yl)-3-fluorophenyl)-8-hydroxy-6-methylthieno[2,3-c]quinolin-4(5H)-one hydrobromide] |  |  |  |  |  |  | IC50 (PBK; [3]): 13 nM; IC50 (A549 cells; hydrobromide): 99 nM; IC50 (T47D cells; hydrobromide): 120 nM; IC50 (HT-1197 cells; [4]): 340 nM |
| CNC[C@H](C)c1ccc(-c2c(O)cc(C)c3[nH]c(=O)c4sccc4c23)cc1 [Compound 1306, (R)-8-hydroxy-6-methyl-9-(4-(1-(methylamino)propan-2-yl)phenyl)thieno[2,3-c]quinolin-4(5H)-one hydrochloride] |  |  |  |  |  |  | IC50 (PBK; PBK 0.8 ng/micro-L, 50 micro-M ATP, 100 nM FITC-labeled histone H3 peptide, room temperature 1 hour, hydrochloride): 7.3 nM; IC50 (A549 cells; hydrochloride): 20 nM; IC50 (T47D cells; hydrochloride): 35 nM; IC50 (HT-1197 cells; HT1197 cells (PBK-negative control), hydrochloride): 73 nM |
| Cc1cc(O)c(-c2ccc([C@@H](C)CN)c(F)c2)c2c1[nH]c(=O)c1sccc12 [Compound 1319, (R)-9-(4-(1-aminopropan-2-yl)-3-fluorophenyl)-8-hydroxy-6-methylthieno[2,3-c]quinolin-4(5H)-one hydrobromide] |  |  |  |  |  |  | IC50 (PBK; [3]): 3.4 nM; IC50 (A549 cells; hydrobromide): 14 nM; IC50 (T47D cells; hydrobromide): 16 nM; IC50 (HT-1197 cells; [4]): 54 nM |
| Cc1cc(O)c(-c2ccc([C@@H](C)CN(C)C)cc2)c2c1[nH]c(=O)c1sccc12 [Compound 1324, (R)-9-(4-(1-(dimethylamino)propan-2-yl)phenyl)-8-hydroxy-6-methylthieno[2,3-c]quinolin-4(5H)-one hydrochloride] |  |  | 30 nM |  |  |  | IC50 (A549 cells; Homo sapiens): 24 nM; IC50 (T47D cells; Homo sapiens): 66 nM |
| CCN(C)C[C@H](C)c1ccc(-c2c(O)cc(C)c3[nH]c(=O)c4sccc4c23)cc1 [Compound 1379, (R)-9-(4-(1-(ethyl(methyl)amino)propan-2-yl)phenyl)-8-hydroxy-6-methylthieno[2,3-c]quinolin-4(5H)-one hydrochloride] | 76 nM | 110 nM |  | 280 nM | 310 nM |  |  |
| CC[C@@H](CNC)c1ccc(-c2c(O)cc(C)c3[nH]c(=O)c4sccc4c23)cc1 [Compound 1380, (R)-8-hydroxy-6-methyl-9-(4-(1-(methylamino)butan-2-yl)phenyl)thieno[2,3-c]quinolin-4(5H)-one hydrochloride] | 85 nM | 96 nM |  | 240 nM | 370 nM |  |  |
| Cc1cc(O)c(-c2ccc([C@H](C)CN(C)C)c(F)c2)c2c1[nH]c(=O)c1sccc12 [Compound 1399, (S)-9-(4-(1-(dimethylamino)propan-2-yl)-3-fluorophenyl)-8-hydroxy-6-methylthieno[2,3-c]quinolin-4(5H)-one hydrochloride] | 58 nM | 180 nM |  | 450 nM | 470 nM |  |  |
| Cc1cc(O)c(-c2ccc(N(C)CCN)cc2)c2c1[nH]c(=O)c1sccc12 [Compound 1400, 9-(4-((2-aminoethyl)(methyl)amino)phenyl)-8-hydroxy-6-methylthieno[2,3-c]quinolin-4(5H)-one hydrochloride] |  | 900 nM |  | 1400 nM | 2800 nM | 60 nM |  |
